# Measured values: PMC10537229, “Antimicrobial Peptides Originating from Expression Libraries of Aurelia aurita and Mnemiopsis leidyi Prevent Biofilm Formation of Opportunistic Pathogens” (Microorganisms, 2023)
# Legend:
# [1] = system: K. oxytoca; assay: Biofilm prevention in vitro assay (crystal violet, static); type: cell-based, Klebsiella oxytoca; conditions: synthetic peptide at highest concentration 112.5 µg/mL, 18 h, versus biofilm control (100%)
# Method: (§1) The opportunistic pathogenic bacteria K. oxytoca (DSM 7342, M5a1-type strain), P. aeruginosa PAO1 (DSM 1707, pathogenic-type strain), S. epidermidis RP62A (DSM 28319, clinical isolate from catheter sepsis), and S. aureus (DSM 11823, clinical isolate) were grown in 5 mL LB medium overnight at below-indicated temperatures. The cell concentrations of the overnight cultures were analyzed with Neubauer cell counting and set to 3 × 10^8 cells/mL using GC minimal medium (with 1% (v/v) glycerol and 0.3% (w/v) casamino acids) for K. oxytoca and Caso bouillon (17 g/L casein peptone, 3 g/L soybean peptone, 5 g/L NaCl, 2.5 g/L K2HPO4, and 2.5 g/L glucose) for the remaining strains in the crystal violet assay. Cultures were aliquoted in 96-well plates (180/195 µL for each cavity). Cell-free size-fractionated cell extracts (20 µL) and synthesized peptides (various concentrations, 5 µL) were added to the cultures. MTPs were closed with gas-permeable membranes (Breathe-Easy®, Diversified Biotech, Dedham, MA, USA) and incubated at 37 °C (P. aeruginosa, S. aureus, and S. epidermidis) or 30 °C (K. oxytoca) for 18 h without shaking. Three biological replicates were performed, each with eight technical replicates. Medium controls were performed for normalization. Biofilm formation was monitored and quantified using the crystal violet assay. Following an 18 h incubation period, the cell cultures were removed, and the wells underwent two washes with H2O. Biofilms that developed and adhered to the surfaces were subjected to staining using 200 μL of a 0.1% crystal violet solution (Carl Roth, Karlsruhe, Germany) for 10 min at room temperature (RT). The stained biofilms were left to air dry after eliminating the crystal violet solution through two H2O washes. A total of 200 μL of 96% ethanol was introduced into each stained well to solubilize the dye, and incubation at RT for 15 min followed. Biofilm formation was assessed by measuring the absorbance of resolved crystal violet at 590 nm with the plate reader Spectra max Plus 384 (Molecular Devices, Ismaning; Germany). The screening procedure is depicted in Figure S1.
# [2] = system: K. oxytoca; assay: Growth of planktonic-growing pathogens (turbidity at 600 nm); type: cell-based, Klebsiella oxytoca; conditions: 112.5 µg/mL peptide, LB, 18 h, 80 rpm, 30 °C; mean of 2 biological x 8 technical replicates; control 1.21326667
# Method: (§2) In addition, the potential growth-inhibiting effects of synthetic peptides were tested on planktonic-growing pathogens. Again, 3 × 10^8 cells/mL diluted in LB medium were aliquoted in 96-well plates (200 µL for each cavity). Synthetic peptides were added to two selected final concentrations of 3.5 µg/mL and 112.5 µg/mL at the beginning of the experiment. MTPs were closed with gas-permeable membranes and gently shaken at 80 rpm and 37 °C (P. aeruginosa, S. aureus, and S. epidermidis) or 30 °C (K. oxytoca) for 18 h. A comparative endpoint determination (growth control, peptide control IDR-1018, and identified peptides) of the turbidity at 600 nm was measured with plate reader Spectra max Plus 384. An unpaired t-test was conducted as a statistical hypothesis test to determine the significance (p-value) of growth differences.
# [3] = system: P. aeruginosa PAO1; assay: Biofilm prevention in vitro assay (crystal violet, static); type: cell-based, Pseudomonas aeruginosa; conditions: 18 h
# Method: as §1
# [4] = system: S. aureus; assay: Growth of planktonic-growing pathogens (turbidity at 600 nm); type: cell-based, Staphylococcus aureus; conditions: 18 h
# Method: as §2
# [5] = system: S. epidermidis; assay: as above; type: cell-based, Staphylococcus epidermidis; conditions: 18 h
# Method: as §2
# [6] = system: S. epidermidis RP62A; assay: Biofilm prevention in vitro assay (crystal violet, static); type: cell-based, Staphylococcus epidermidis; conditions: synthetic peptide at highest concentration 112.5 µg/mL, 18 h, versus biofilm control (100%)
# Method: as §1
# [7] = system: P. aeruginosa; assay: Growth of planktonic-growing pathogens (turbidity at 600 nm); type: cell-based, Pseudomonas aeruginosa; conditions: 18 h
# Method: as §2
# [8] = system: K. oxytoca M5aI; assay: Dynamic biofilm formation in microfluidic flow cell (Syto9, CLSM); type: cell-based, Klebsiella oxytoca; conditions: peptide 10 ng/channel, GC medium, flow 15 µL/h, 24 h, 30 °C, mean ± SD of four biological x four technical replicates
# Excerpt: The microfluidic flow cell system comprises a polymethyl methacrylate corpus with a single channel (1 × 8 × 0.1 mm). Two inlets and one outlet exist. A borosilicate glass (24 × 60 × 0.17 mm; Carl Roth, Karlsruhe, Germany) was fixed with the adhesive Black-Seal silicone (Weicon, Münster, Germany). Microliter syringes (Innovative Labor System GmbH, Stützenbach, Germany) were connected via polytetrafluoroethylene (PTFE) tubes (0.3 mm × 0.6 mm) (Bola, Grünsfeld, Germany) with the in- and outlets and clamped into a syringe pump (Model: 220) (KD Scientific, Holliston, MA, USA). The channel was sterilized by rinsing 70% EtOH for 24 h at a flow rate of 20 µL/h. Afterwards, the remaining ethanol was washed out with sterile water at 20 μL/h for 1 h. Subsequently, the channel was equilibrated with GC medium at 20 μL/h for 2 h. Inoculation was conducted with a cell suspension of 1 × 10^9 cells/mL, generated from an overnight culture of K. oxytoca M5aI. Initial cell adhesion was ensured by incubation at 30 °C for 1 h without any flow. Next, the channel was continuously rinsed at 15 μL/h with GC medium injected within the first inlet. The synthetic peptides IDR-1018 (biofilm-preventing control peptide, [47, 48], BiP_Aa_2, BiP_Aa_5, and BiP_Aa_6 were diluted in GC medium to a concentration of 25 µg/mL and injected within the second inlet. Thus, the final peptide concentration was 12.5 µg/mL, corresponding to 10 ng peptide within the 0.8 µL channel. Biofilm formation was conducted at a flow rate of 15 µL/h for 24 h at 30 °C. The biofilm formation of K. oxytoca M5aI was further studied without adding peptides. Four biological replicates were conducted for each treatment.
# Biofilms were stained with the fluorescent dye Syto9 (488 nm) (Life Technologie, Carlsbad, CA, USA) and analyzed using the LSM 700 confocal laser scanning microscope (Zeiss, Oberkochen, Germany). Therefore, the microfluidic flow cells were washed with GC medium at 3 µL/min for 15 min. The channel was then filled with a 1:1000 dilution of the fluorescent dye Syto9 and incubated in the dark at RT for 30 min. Dye residues were removed by rinsing GC medium at 3 μL/min for 15 min. Four image stacks were recorded per flow cell with optical sections of 0.9 µm per z-step. The digital image acquisition, three-dimensional reconstruction, and calculation of the biofilm parameters were performed with the software “Zen Black” (version 14.0.22.201) (Zeiss, Oberkochen, Germany) and the microscopy image analysis software “Imaris” (version 9.9.0) (Oxford Instruments, Abingdon, UK).
# [9] = system: K. oxytoca, P. aeruginosa, S. epidermidis, and S. aureus; assay: Crystal violet biofilm assay, statements on all tested pathogens; type: cell-based; conditions: summary in discussion
# Method: as §1, with “Three biological replicates were performed, each with eight technical replicates. Medium controls were performed for normalization.” left out, “Following an 18 h incubation period, the cell cultures were removed, and the wells underwent two washes with H2O. Biofilms that developed and adhered to the surfaces were subjected to staining using 200 μL of a 0.1% crystal violet solution (Carl Roth, Karlsruhe, Germany) for 10 min at room temperature (RT). The stained biofilms were left to air dry after eliminating the crystal violet solution through two H2O washes. A total of 200 μL of 96% ethanol was introduced into each stained well to solubilize the dye, and incubation at RT for 15 min followed.” left out, “The screening procedure is depicted in Figure S1.” left out
# [10] = 112.5 µg/mL, versus control without peptide
sequence,measurement,setting,value
"VRNSVLFRRRRLVC [BiP_Aa_5, synthetic peptide from sORF of A. aurita EST clone 127_8F]",reduction of K. oxytoca biofilm formation at 112.5 µg/mL,[1],54%
same,"turbidity (600 nm), K. oxytoca",[2],1.257
same,effect on P. aeruginosa biofilm formation (in words),[3]; synthetic peptide 0.4-112.5 µg/mL,slight interference
same,reduction of P. aeruginosa biofilm formation at 112.5 µg/mL,"[3]; synthetic peptide at highest dose 112.5 µg/mL, versus biofilm control (100%)",47%
same,"turbidity (600 nm), S. aureus","[4]; 112.5 µg/mL peptide, LB, 80 rpm, 37 °C, mean of 2 biological x 8 technical replicates, control 1.37192917",1.312
same,reduction of planktonic growth of S. aureus,[4]; [10],1.5–5%
same,"turbidity (600 nm), S. epidermidis","[5]; 112.5 µg/mL peptide, LB, 80 rpm, 37 °C, mean of 2 biological x 8 technical replicates, control 1.3398",1.301
same,reduction of planktonic growth of S. epidermidis,[5]; [10],3%
same,reduction of S. epidermidis biofilm formation at 112.5 µg/mL,[6],22%
same,"turbidity (600 nm), P. aeruginosa","[7]; 112.5 µg/mL peptide, LB, 80 rpm, 37 °C, mean of 2 biological x 8 technical replicates, control 1.2788369",1.249
same,reduction of planktonic growth of P. aeruginosa,[7]; [10],1.5–5%
same,biofilm thickness,[8]; medium control 11 ± 6 µm,7 ± 2 µm
same,biofilm volume,[8]; medium control 112 ± 62 µm^3,51 ± 25 µm^3
same,"reduction of biofilm masses, all tested pathogens",[9],up to 50%
